The source of these data is US10632125B2, “MTH1 inhibitors for treatment of inflammatory and autoimmune conditions” (THOMAS HELLEDAYS STIFTELSE FÖR MEDICINSK FORSKNING, priority 2014, dated 2020).

The IC50 is the concentration that inhibits the measured activity by half.

The assay concerns the target MTH1 (Homo sapiens, UniProt P36639). As to the kind of experiment: MTH1 enzymatic assay (malachite green, coupled to pyrophosphatase). It counts as biochemical. Conditions: dGTP 100 μM, MTH1 6 nM; 96- or 384-well format; read-out: IC50.
As for `Cc1cc(-c2cc(NCCc3ccc(Cl)cc3)nc(N)n2)c(C)cc1F` [Example 223, 4-N-[2-(4-chlorophenyl)ethyl]-6-(4-fluoro-2,5-dimethylphenyl)pyrimidine-2,4-diamine], the concentration for half-maximal inhibition (IC50) was below 200 nM.
On to `Cc1ccc(C)c(-c2cc(NCCc3ccc(Cl)cc3)nc(N)n2)c1` [Example 224, 4-N-[2-(4-chlorophenyl)ethyl]-6-(2,5-dimethylphenyl)pyrimidine-2,4-diamine], for which the IC50 is below 200 nM.
Next, `CNc1cc(-c2ccc(/C=C/C(=O)O)cc2)nc(N)n1` [Example 233, (2E)-3-{4-[2-amino-6-(methylamino)pyrimidin-4-yl]phenyl}prop-2-enoic acid]: below 200 nM.
The result for `Cc1cccc(-c2cc(NCC3CN(C(=O)OC(C)(C)C)C3)nc(N)n2)c1C` [Example 234, tert-butyl 3-({[2-amino-6-(2,3-dimethylphenyl)pyrimidin-4-yl]amino}methyl)-azetidine-1-carboxylate] reads below 200 nM; that for `Nc1nc(NC2CC2)cc(-c2ccc3[nH]ccc3c2)n1` [Example 235, 4-N-cyclopropyl-6-(1H-indol-5-yl)pyrimidine-2,4-diamine], below 200 nM; that for `Cc1cccc(-c2cc(NCC(C)(C)CNC(=O)OC(C)(C)C)nc(N)n2)c1C` [Example 239, tert-Butyl (3-((2-amino-6-(2,3-dimethylphenyl)pyrimidin-4-yl)amino)-2,2-dimethyl-propyl)carbamate], below 200 nM.
Take `CNc1cc(-c2cc(Cl)c(OC)cc2C)nc(N)n1` [Example 240, 6-(5-chloro-4-methoxy-2-methylphenyl)-4-N-methylpyrimidine-2,4-diamine]: the IC50 is below 200 nM.
In the case of `Cc1c(Cl)cccc1-c1cc(NC(C)Cc2c[nH]c3ccccc23)nc(N)n1` (centres unmarked) [Example 243, 6-(3-chloro-2-methylphenyl)-4-N-[1-(1H-indol-3-yl)propan-2-yl]pyrimidine-2,4-diamine], the IC50 is below 200 nM.
With `Cc1cccc(-c2cc(NCCOc3ccccc3Cl)nc(N)n2)c1C` [Example 247, 4-N-[2-(2-chlorophenoxy)ethyl]-6-(2,3-dimethylphenyl)pyrimidine-2,4-diamine], the IC50 is below 200 nM.
Turning to `Cc1cccc(-c2cc(NCCc3nc4cc(Cl)ccc4[nH]3)nc(N)n2)c1C` [Example 248, 4-N-[2-(5-chloro-1H-1,3-benzodiazol-2-yl)ethyl]-6-(2,3-dimethylphenyl)pyrimidine-2,4-diamine], the IC50 is below 200 nM.
Next, `Cc1cccc(-c2cc(NCC(C)Oc3cccnc3)nc(N)n2)c1C` (centres unmarked) [Example 250, 6-(2,3-dimethylphenyl)-4-N-[2-(pyridin-3-yloxy)propyl]pyrimidine-2,4-diamine]: below 200 nM.
The result for `Cc1cccc(-c2cc(NCc3ccc4[nH]ncc4c3)nc(N)n2)c1C` [Example 251, 6-(2,3-dimethylphenyl)-4-N-(1H-indazol-5-ylmethyl)pyrimidine-2,4-diamine] reads below 200 nM; that for `COc1cc(CNc2cc(-c3cccc(C)c3C)nc(N)n2)ccn1` [Example 253, 6-(2,3-dimethylphenyl)-4-N-[(2-methoxypyridin-4-yl)methyl]pyrimidine-2,4-diamine], below 200 nM.
The result for `CNc1cc(-c2cccc(C#N)c2C)nc(N)n1` [Example 258, 3-[2-amino-6-(methylamino)pyrimidin-4-yl]-2-methylbenzonitrile] reads below 200 nM; that for `CNc1cc(-c2cccc3c2OCC3)nc(N)n1` [Example 261, 6-(2,3-dihydro-1-benzofuran-7-yl)-4-N-methylpyrimidine-2,4-diamine], below 200 nM; that for `CNc1cc(-c2cc(S(=O)(=O)N3CCOCC3)ccc2C)nc(N)n1` [Example 262, 4-N-methyl-6-[2-methyl-5-(morpholine-4-sulfonyl)phenyl]pyrimidine-2,4-diamine], below 200 nM.
Regarding `Nc1nc(NCCc2ccc(Cl)cc2)cc(-c2cccc(Cl)c2Cl)n1` [Example 263, 4-N-[2-(4-chlorophenyl)ethyl]-6-(2,3-dichlorophenyl)pyrimidine-2,4-diamine], the IC50 was below 200 nM.
Take `Cc1cccc(-c2cc(NCCc3cccnc3)nc(N)n2)c1C` [Example 268, 6-(2,3-dimethylphenyl)-4-N-[2-(pyridin-3-yl)ethyl]pyrimidine-2,4-diamine]: the IC50 was below 200 nM.
`Cc1cccc(-c2cc(NCCNC(=O)OC(C)(C)C)nc(N)n2)c1C` [Example 271, tert-butyl N-(2-{[2-amino-6-(2,3-dimethylphenyl)pyrimidin-4-yl]amino}ethyl)-carbamate]: the half-inhibitory concentration (IC50) is below 200 nM.
The result for `Cc1cccc(-c2cc(NCCN(C)C(=O)OC(C)(C)C)nc(N)n2)c1C` [Example 274, tert-butyl N-(2-{[2-amino-6-(2,3-dimethylphenyl)pyrimidin-4-yl]amino}ethyl)-N-methylcarbamate] reads below 200 nM; that for `Cc1cccc(-c2cc(NCc3ccc(S(C)(=O)=O)cc3)nc(N)n2)c1C` [Example 279, 6-(2,3-dimethylphenyl)-4-N-[(4-methanesulfonylphenyl)methyl]pyrimidine-2,4-diamine], below 200 nM; that for `Cc1cccc(-c2cc(NCc3ccc(N4CCN(C)CC4)cc3)nc(N)n2)c1C` [Example 280, 6-(2,3-dimethylphenyl)-4-N-{[4-(4-methylpiperazin-1-yl)phenyl]methyl}pyrimidine-2,4-diamine], below 200 nM.
Next, `Cc1cccc(-c2cc(NCC3CCN(C(=O)OC(C)(C)C)CC3)nc(N)n2)c1C` [Example 283, tert-butyl 4-({[2-amino-6-(2,3-dimethylphenyl)pyrimidin-4-yl]amino}methyl)-piperidine-1-carboxylate]: below 200 nM.
As to `CC(=O)NCCCCNc1cc(-c2cccc(Cl)c2Cl)nc(N)n1` [Example 303, N-(4-{[2-Amino-6-(2,3-dichlorophenyl)pyrimidin-4-yl]amino}butyl)acetamide], the IC50 is below 200 nM.
For the compound `Nc1nc(NCc2ccc(-c3csnn3)cc2)cc(-c2cccc(Cl)c2Cl)n1` [Example 305, 6-(2,3-Dichlorophenyl)-4-N-{[4-(1,2,3-thiadiazol-4-yl)phenyl]methyl}pyrimidine-2,4-diamine], the 50% inhibitory concentration (IC50) was below 200 nM.
For `C=CC(=O)Nc1cccc(-c2cc(NC)nc(N)n2)c1` [Example 309, N-{3-[2-Amino-6-(methylamino)pyrimidin-4-yl]phenyl}prop-2-enamide], the half-maximal inhibitory concentration (IC50) was below 200 nM.
With `CNc1cc(-c2cccc(NC(=O)/C=C/c3ccccc3)c2)nc(N)n1` [Example 310, (2E)-N-{3-[2-Amino-6-(methylamino)pyrimidin-4-yl]phenyl}-3-phenylprop-2-enamide], the half-maximal inhibitory concentration (IC50) was below 200 nM.
The result for `C=CC(=O)Nc1cccc(-c2cc(NC)nc(N)n2)c1C` [Example 311, N-{3-[2-Amino-6-(methylamino)pyrimidin-4-yl]-2-methylphenyl}prop-2-enamide] reads below 200 nM; that for `C#CC(=O)Nc1cccc(-c2cc(NC)nc(N)n2)c1` [Example 314, N-{3-[2-Amino-6-(methylamino)pyrimidin-4-yl]phenyl}prop-2-ynamide], below 200 nM; that for `CNc1cc(-c2cccc(NC(=O)c3cc(Cl)ccc3O)c2)nc(N)n1` [Example 321, N-{3-[2-Amino-6-(methylamino)pyrimidin-4-yl]phenyl}-5-chloro-2-hydroxybenzamide], below 200 nM.
Consider `CNc1cc(-c2cccc(NC(=O)CCC(=O)N3CCCC3)c2)nc(N)n1` [Example 325, N-{3-[2-Amino-6-(methylamino)pyrimidin-4-yl]phenyl}-4-oxo-4-(pyrrolidin-1-yl)butanamide], for which the IC50 was below 200 nM.
With `CNc1cc(-c2cccc(CN)c2)nc(N)n1` [Example 328, 6-[3-(Aminomethyl)phenyl]-4-N-methylpyrimidine-2,4-diamine], the IC50 was below 200 nM.
Turning to `Cc1nc(CCNc2cc(-c3cccc(C)c3C)nc(N)n2)n[nH]1` [Example 332, 6-(2,3-Dimethylphenyl)-4-N-[2-(5-methyl-1H-1,2,4-triazol-3-yl)ethyl]pyrimidine-2,4-diamine], the 50% inhibitory concentration (IC50) was below 200 nM.
On to `Cc1cccc(-c2cc(NCCn3ccccc3=O)nc(N)n2)c1C` [Example 337, 1-(2-{[2-Amino-6-(2,3-dimethylphenyl)pyrimidin-4-yl]amino}ethyl)-1,2-dihydropyridin-2-one], for which the IC50 is below 200 nM.
In the case of `Cc1cccc(-c2cc(NCc3ccc[nH]c3=O)nc(N)n2)c1C` [Example 338, 3-({[2-Amino-6-(2,3-dimethylphenyl)pyrimidin-4-yl]amino}methyl)-1,2-dihydropyridin-2-one], the half-maximal inhibitory concentration (IC50) is below 200 nM.
Turning to `Cc1cccc(-c2cc(NCCc3cccc(Cl)c3)nc(N)n2)c1C` [Example 341, 4-N-[2-(3-Chlorophenyl)ethyl]-6-(2,3-dimethylphenyl)pyrimidine-2,4-diamine], the IC50 was below 200 nM.
As to `Cc1cccc(-c2cc(NCCCn3ccnc3)nc(N)n2)c1C` [Example 342, 6-(2,3-Dimethylphenyl)-4-N-[3-(1H-imidazol-1-yl)propyl]pyrimidine-2,4-diamine], the IC50 is below 200 nM.
Next, `Cc1cccc(-c2cc(NCCc3ccc(F)cc3)nc(N)n2)c1C` [Example 344, 6-(2,3-Dimethylphenyl)-4-N-[2-(4-fluorophenyl)ethyl]pyrimidine-2,4-diamine]: below 200 nM; `Cc1cccc(-c2cc(NCCc3scnc3C)nc(N)n2)c1C` [Example 352, 6-(2,3-Dimethylphenyl)-4-N-[2-(4-methyl-1,3-thiazol-5-yl)ethyl]pyrimidine-2,4-diamine]: below 200 nM.
Next, `Cc1cccc(-c2cc(NCC3CCCN(c4ccccn4)C3)nc(N)n2)c1C` (centres unmarked) [Example 355, 6-(2,3-Dimethylphenyl)-4-N-{[1-(pyridin-2-yl)piperidin-3-yl]methyl}pyrimidine-2,4-diamine]: below 200 nM.
For `Cc1cccc(-c2cc(NCc3cnn(-c4ccccc4)n3)nc(N)n2)c1C` [Example 356, 6-(2,3-Dimethylphenyl)-4-N-[(2-phenyl-2H-1,2,3-triazol-4-yl)methyl]pyrimidine-2,4-diamine], the IC50 is below 200 nM.
